Test results reported in ChEMBL document CHEMBL3045458, “Design, synthesis and biological evaluation of novel arylidine-malononitrile derivatives as non-carboxylic inhibitors of protein tyrosine phosphatase 1B” (Med Chem Res, 2013).

How the values were obtained:
[1] = target: T1, Tyrosine-protein phosphatase non-receptor type 1 (Homo sapiens) (UniProt P18031); assay: Inhibition of PTP1B (unknown origin) at 10 uM
T1 sequence (whole entry): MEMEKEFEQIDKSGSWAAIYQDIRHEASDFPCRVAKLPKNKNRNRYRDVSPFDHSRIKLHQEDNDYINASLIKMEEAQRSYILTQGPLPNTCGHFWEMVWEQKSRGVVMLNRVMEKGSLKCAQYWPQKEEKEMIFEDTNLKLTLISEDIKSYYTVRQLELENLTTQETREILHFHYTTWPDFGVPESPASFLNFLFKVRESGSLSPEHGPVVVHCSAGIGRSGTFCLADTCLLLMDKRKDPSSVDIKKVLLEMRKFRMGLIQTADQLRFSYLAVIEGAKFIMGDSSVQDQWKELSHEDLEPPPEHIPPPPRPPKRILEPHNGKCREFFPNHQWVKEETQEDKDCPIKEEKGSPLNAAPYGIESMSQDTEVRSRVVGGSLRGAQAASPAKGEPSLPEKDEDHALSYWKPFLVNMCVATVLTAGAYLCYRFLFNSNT

L6 (Rattus norvegicus) = assay: Glucose uptake in Rattus norvegicus (rat) L6 cells at 50 uM
Danio rerio [2] = assay: Toxicity in Danio rerio (zebrafish) embryo assessed as oedema at 10 uM after 24 to 72 hr by light microscopic analysis relative to control; type: organism-based; conditions: in vivo
Danio rerio [3] = species: Danio rerio; assay: Toxicity in Danio rerio (zebrafish) embryo assessed as mortality at 10 uM after 24 to 72 hr by light microscopic analysis relative to control; type: organism-based; conditions: in vivo
Danio rerio [4] = species: Danio rerio; assay: Toxicity in Danio rerio (zebrafish) embryo assessed as deformations at 10 uM after 24 to 72 hr by light microscopic analysis relative to control; type: organism-based; conditions: in vivo
Danio rerio [5] = species: Danio rerio; assay: Toxicity in Danio rerio (zebrafish) embryo assessed as developmental delays at 10 uM after 24 to 72 hr by light microscopic analysis relative to control; type: organism-based; conditions: in vivo

| inhibition [1] [%] | glucose uptake (L6 (Rattus norvegicus)) [%] | Compound | Activity (Danio rerio [2]) | Activity (Danio rerio [3]) | Activity (Danio rerio [4]) | Activity (Danio rerio [5]) |
| --- | --- | --- | --- | --- | --- | --- |
| 39 | 13.5 | COc1cccc(-c2nnc(SCCOc3ccc(C=C(C#N)C#N)cc3)o2)c1 |  |  |  |  |
| 41.4 | 11.8 | N#CC(C#N)=Cc1ccc(OCCSc2nnc(-c3cccc([N+](=O)[O-])c3)o2)cc1 |  |  |  |  |
| 30.4 | 13.3 | N#CC(C#N)=Cc1ccc(OCCSc2nnc(-c3ccc(F)cc3)o2)cc1 |  |  |  |  |
| 44.5 | 18.8 | Cc1ccc(-c2nnc(SCCOc3ccc(C=C(C#N)C#N)cc3)o2)cc1 |  |  |  |  |

Second part, the compound before the results:

| Compound | inhibition [1] [%] | glucose uptake (L6 (Rattus norvegicus)) [%] | Activity (Danio rerio [2]) | Activity (Danio rerio [3]) | Activity (Danio rerio [4]) | Activity (Danio rerio [5]) |
| --- | --- | --- | --- | --- | --- | --- |
| N#CC(C#N)=Cc1ccc(OCCSc2nnc(-c3ccc(Cl)cc3)o2)cc1 | 34.3 | 24.2 |  |  |  |  |
| N#CC(C#N)=Cc1ccc(OCCSc2nnc(-c3ccccc3Cl)o2)cc1 | 23.4 | 26.6 |  |  |  |  |
| COc1ccccc1-c1nnc(SCCOc2ccc(C=C(C#N)C#N)cc2)o1 | 50 | 38.5 | Non-toxic | Non-toxic | Non-toxic | Non-toxic |
| N#CC(C#N)=Cc1ccc(OCCSc2nnc(-c3ccccc3)o2)cc1 | 54.6 | 25.3 | Non-toxic | Non-toxic | Non-toxic | Non-toxic |
